Assay results: patent publication US11691984B2, “Compounds and methods for DCAF-mediated protein degradation” (The Scripps Research Institute, priority 2018, dated 2023)

Legend:
BRD4 and DCAF16 = target: T1, BRD4 and DCAF16 (Homo sapiens, UniProt O60885+Q9NXF7); experiment: Co-immunoprecipitation of BRD4-FLAG with HA-DCAF16 in HEK293T cells; format: cell-based; details: 10 μM KB02-JQ1, 10 μM MG132, 2 hours
T1 construct: expressed in transfected cells; host or cells: HEK293T (pRK5 vectors)
Description: (§1) Cells were collected and lysed in 1% NP-40 lysis buffer (25 mM Tris-HCl pH 7.4, 150 mM NaCl, 10% glycerol, 1% Nonidet P-40) with complete protease inhibitor cocktail (Roche). Cells were vortexed and sonicated for 5 pulses (40%, 4). The supernatant was collected after centrifugation at 16,000 g for 10 min at 4° C. Protein concentration was determined by DC assay (Bio-Rad). Protein lysate was heated at 95° C. for 5 min in 1× Laemmli sample buffer. Proteins were resolved by 12% or 14% Novex Tris-Glycine Mini Gels (Invitrogen) and transferred to polyvinylidene fluoride (PVDF) membrane (0.2 Bio-Rad). The membrane was blocked with 5% BSA in TBST buffer (0.1% Tween 20, 20 mM Tris-HCl 7.6, 150 mM NaCl) at room temperature for 1 h. The antibody was diluted with fresh 5% BSA in TBST buffer (1:10000 dilution for FLAG, HA and β-Actin, 1:1000 dilution for others) and incubated with membrane (1 h room temperature for FLAG, HA and β-Actin, overnight 4° C. for others). Membrane was washed three times with TBST buffer and incubated with secondary antibody (1:5000 dilution in 5% BSA in TBST) at room temperature for 1 h. Membrane was washed three times with TBST buffer. The chemiluminescence signal in membrane was recorded after developing in ECL or ECL plus western blotting detection reagent using CL-XPosure film (Thermo Scientific). Relative band intensities were quantified using ImageJ. […]

BRD3 = target: T2, BRD3 (Homo sapiens, UniProt Q15059); experiment: Proteome-wide SILAC MS protein abundance in HEK293T cells: BRD3; format: cell-based; details: KB02-JQ1 20 μM, 24 hours
T2 construct: endogenous in cells; host or cells: HEK293T
T2 sequence (Q15059 whole entry): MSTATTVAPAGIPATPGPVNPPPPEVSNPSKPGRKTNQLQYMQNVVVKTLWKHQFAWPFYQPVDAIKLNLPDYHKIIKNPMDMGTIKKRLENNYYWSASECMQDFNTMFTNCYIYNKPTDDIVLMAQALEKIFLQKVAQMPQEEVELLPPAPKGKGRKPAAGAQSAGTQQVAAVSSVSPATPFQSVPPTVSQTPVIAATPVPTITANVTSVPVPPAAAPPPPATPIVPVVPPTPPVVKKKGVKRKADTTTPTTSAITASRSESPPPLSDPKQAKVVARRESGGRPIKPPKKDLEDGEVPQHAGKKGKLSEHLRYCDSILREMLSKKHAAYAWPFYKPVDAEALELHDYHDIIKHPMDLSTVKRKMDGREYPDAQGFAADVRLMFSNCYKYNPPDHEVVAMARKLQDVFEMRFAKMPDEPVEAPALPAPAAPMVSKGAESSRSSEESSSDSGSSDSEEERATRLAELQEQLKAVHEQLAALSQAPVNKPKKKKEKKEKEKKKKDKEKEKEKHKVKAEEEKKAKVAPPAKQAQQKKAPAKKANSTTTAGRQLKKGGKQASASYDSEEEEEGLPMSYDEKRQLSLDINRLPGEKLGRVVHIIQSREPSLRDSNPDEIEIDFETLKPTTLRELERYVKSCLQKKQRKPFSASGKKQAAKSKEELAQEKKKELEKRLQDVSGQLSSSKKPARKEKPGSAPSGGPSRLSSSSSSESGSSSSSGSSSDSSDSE
Description: (§2) HEK293T light and heavy SILAC cells were treated with DMSO and KB02-JQ1 (20 μM) or KB02-SLF (2 μM) for 24 hours, respectively. Light and heavy cells were collected and lysed in 1% NP-40 lysis buffer with complete protease inhibitor cocktail. Cells were vortexed and sonicated for 5 pulses (40%, 4). The supernatant was collected after centrifugation at 16,000 g for 10 min at 4° C. Protein concentration was determined by DC assay. 50 μg proteome from light and heavy samples were mixed, followed by methanol/chloroform precipitation. […] Next, the ratio of the peak areas under the light and heavy signals (signal-to-noise ratio>2.5) was calculated. […] In addition, peptides detected as ‘singletons,’ where only the heavy ion of a peptide pair was identified, but that cleared all other filtering parameters, were given a default assigned ratio of ‘20,’ which is defined as any measured ratio that is ≥20 and is the maximum ratio reported here.” The median SILAC ratios from quantified peptides were used as measures of protein abundance. The following quality filters were further applied to generate the plot: (1) proteins must have at least two quantified peptides; (2) proteins must be present in both replicates; (3) for each protein, the standard deviation of measured ratios of peptides must be <1.0.

BRD2 = target: T3, BRD2 (Homo sapiens, UniProt P25440); experiment: Proteome-wide SILAC MS protein abundance in HEK293T cells: BRD2; format: cell-based; details: KB02-JQ1 20 μM, 24 hours
T3 construct: endogenous in cells; host or cells: HEK293T
T3 sequence (P25440 whole entry): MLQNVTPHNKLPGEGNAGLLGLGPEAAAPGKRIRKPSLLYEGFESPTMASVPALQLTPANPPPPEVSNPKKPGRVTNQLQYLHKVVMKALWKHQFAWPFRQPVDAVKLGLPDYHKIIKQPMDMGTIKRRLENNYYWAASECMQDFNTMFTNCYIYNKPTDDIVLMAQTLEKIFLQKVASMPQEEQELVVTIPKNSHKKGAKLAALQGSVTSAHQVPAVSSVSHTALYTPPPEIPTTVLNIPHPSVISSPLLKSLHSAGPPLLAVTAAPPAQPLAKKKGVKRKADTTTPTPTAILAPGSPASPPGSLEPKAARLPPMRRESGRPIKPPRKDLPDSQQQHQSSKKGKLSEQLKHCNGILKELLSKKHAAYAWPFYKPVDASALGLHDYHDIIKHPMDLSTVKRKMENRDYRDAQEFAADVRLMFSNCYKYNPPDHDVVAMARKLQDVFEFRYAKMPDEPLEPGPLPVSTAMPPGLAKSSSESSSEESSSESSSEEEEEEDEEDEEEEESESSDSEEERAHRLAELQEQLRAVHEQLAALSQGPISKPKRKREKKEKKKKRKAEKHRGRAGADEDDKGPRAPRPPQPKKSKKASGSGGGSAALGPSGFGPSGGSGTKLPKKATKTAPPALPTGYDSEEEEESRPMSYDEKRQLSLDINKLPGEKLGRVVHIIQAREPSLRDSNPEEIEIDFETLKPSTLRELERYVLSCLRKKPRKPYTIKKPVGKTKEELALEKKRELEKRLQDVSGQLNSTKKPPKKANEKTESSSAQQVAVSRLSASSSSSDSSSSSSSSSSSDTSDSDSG
Description: as §2

CRL(s) = experiment: isoTOP-ABPP of ligand-engaged cysteines in HEK293T cells; format: cell-based, human; details: 10 μM KB02-SLF, 2 h
Description: HEK293T cells were treated with DMSO or 10 μM KB02-SLF for 2 h. Cells were collected and subjected to isoTOP-ABPP sample preparation using the same protocol as described in Backus et al., “Proteome-wide covalent ligand discovery in native biological systems”, Nature 534: 570-574 (2016).

FLAG-FKBP12_NLS = FLAG-FKBP12_NLS (Homo sapiens, UniProt P62942); experiment: Polyubiquitination of immunoprecipitated FLAG-FKBP12_NLS in HEK293T cells; format: cell-based; set-up: expressed in transfected cells; host or cells: HEK293T, (lentiviral pCDH-CMV-MCS-EF1-Puro); details: KB02-SLF 5 μM, MG132 10 μM, 2 hours
FLAG-FKBP12_NLS, sequence (P62942 whole entry): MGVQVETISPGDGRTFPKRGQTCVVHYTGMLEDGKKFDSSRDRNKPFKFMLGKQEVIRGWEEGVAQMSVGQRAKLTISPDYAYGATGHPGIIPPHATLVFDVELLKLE
Description: as §1

[1] = system: HA-DCAF16 and FLAG-FKBP12_NLS; experiment: Co-immunoprecipitation of HA-DCAF16 with FLAG-FKBP12_NLS (ternary complex) in HEK293T cells; format: cell-based, human; details: KB02-SLF, cells pre-treated with MG132
Description: (§3) Cells were collected and lysed in 1% NP-40 lysis buffer (25 mM Tris-HCl pH 7.4, 150 mM NaCl, 10% glycerol, 1% Nonidet P-40) with complete protease inhibitor cocktail (Roche). Cells were vortexed and sonicated for 5 pulses (40%, 4). The supernatant was collected after centrifugation at 16,000 g for 10 min at 4° C. Protein concentration was determined by DC assay (Bio-Rad). Protein lysate was heated at 95° C. for 5 min in 1× Laemmli sample buffer. Proteins were resolved by 12% or 14% Novex Tris-Glycine Mini Gels (Invitrogen) and transferred to polyvinylidene fluoride (PVDF) membrane (0.2 Bio-Rad). The membrane was blocked with 5% BSA in TBST buffer (0.1% Tween 20, 20 mM Tris-HCl 7.6, 150 mM NaCl) at room temperature for 1 h. The antibody was diluted with fresh 5% BSA in TBST buffer (1:10000 dilution for FLAG, HA and β-Actin, 1:1000 dilution for others) and incubated with membrane (1 h room temperature for FLAG, HA and β-Actin, overnight 4° C. for others). Membrane was washed three times with TBST buffer and incubated with secondary antibody (1:5000 dilution in 5% BSA in TBST) at room temperature for 1 h. Membrane was washed three times with TBST buffer. The chemiluminescence signal in membrane was recorded after developing in ECL or ECL plus western blotting detection reagent using CL-XPosure film (Thermo Scientific). Relative band intensities were quantified using ImageJ.
(§4) Cells were collected and lysed in 1% NP-40 lysis buffer with complete protease inhibitor cocktail on ice for 10 min, followed by 5 pulses of sonication (40%, 4). After centrifugation at 16,000 g for 10 min at 4° C., the supernatant was collected. FLAG affinity gel (20 μL slurry per sample) was incubated with protein lysates at 4° C. for 1 h and washed four times with IP washing buffer. The affinity gel was heated at 95° C. for 10 min in 2× Laemmli sample buffer, followed by western blot analysis.

[2] = target: T4, HA-DCAF16 and FLAG-FKBP12_NLS (Homo sapiens, UniProt P62942+Q9NXF7); experiment: as above; format: cell-based; details: MG132 10 μM
T4 construct: expressed in transfected cells; host or cells: HEK293T stably expressing FLAG-FKBP12_NLS, transiently transfected with HA-DCAF16 (pRK5)
Description: as §3, §4

Compound | co-immunoprecipitation of DCAF16 with BRD4 (BRD4 and DCAF16) | BRD3 abundance (MS-based proteomics) (BRD3) | BRD2 abundance (MS-based proteomics) (BRD2) | strongly engaged (>75%) cysteines on CRL(s) (CRL(s)) | polyubiquitination of FKBP12_NLS after shRNA knockdown of DCAF16 (FLAG-FKBP12_NLS) | polyubiquitination of nuclear FKBP12_NLS (FLAG-FKBP12_NLS) | co-immunoprecipitation of C173S- and C178S-DCAF16 with FKBP12_NLS [1] | co-immunoprecipitation of C177S- and C179S-DCAF16 with FKBP12_NLS [1] | co-immunoprecipitation of HA-DCAF16 with FLAG-FKBP12_NLS ([2]; 5 μM, 2 hours) | conversion of HA-DCAF16 to higher molecular weight (HMW) form ([2]; increasing concentrations of KB02-SLF, 2 h)
Cc1sc2c(c1C)C(c1ccc(Cl)cc1)=N[C@@H](CC(=O)NCCOCCOCCNC(=O)COc1ccc3c(c1)CCCN3C(=O)CCl)c1nnc(C)n1-2 [KB02-JQ1, (S)-2-((1-(2-chloroacetyl)-1,2,3,4-tetrahydroquinolin-6-yl)oxy)-N-(2-(2-(2-(2-(4-(4-chlorophenyl)-2,3,9-trimethyl-6H-thieno[3,2-f][1,2,4]triazolo[4,3-a][1,4]diazepin-6-yl)acetamido)ethoxy)ethoxy)ethyl)acetamide] | co-immunoprecipitated with BRD4 in a KB02-JQ1-dependent manner | not BRD2 or BRD3 | appeared to be stabilized | – | – | – | – | – | – | –
CCC(C)(C)C(=O)C(=O)N1CCCC[C@H]1C(=O)O[C@H](CCc1ccc(OC)c(OC)c1)c1cccc(NC(=O)CCOCCOCCNC(=O)COc2ccc3c(c2)CCCN3C(=O)CCl)c1 [KB02-SLF, (R)-1-(3-(3-(2-(2-(2-((1-(2-chloroacetyl)-1,2,3,4-tetrahydroquinolin-6-yl)oxy)acetamido)ethoxy)ethoxy)propanamido)phenyl)-3-(3,4-dimethoxyphenyl)propyl (S)-1-(3,3-dimethyl-2-oxopentanoyl)piperidine-2-carboxylate] | – | – | – | cysteines were not observed on CRL(s) that were strongly engaged (>75%) | abolished KB02-SLF-induced polyubiquitination of FKBP12_NLS | induced polyubiquitination of nuclear FKBP12_NLS | co-immunoprecipitated with FKBP12_NLS in KB02-SLF-treated cells | not C177S- and C179S-DCAF16 | HA-DCAF16 and DDB1 co-immunoprecipitated with FLAG-FKBP12_NLS | Only a modest fraction of HA-DCAF16 was converted to this HMW
